Laboratory results as given in paper PMC7211202 (Investigational New Drugs, 2019).
Where two headings read alike, the source gives them in different places.

Columns and labels:
[1] = Plasma AMG 232 pharmacokinetics (HPLC-MS, non-compartmental analysis); type: in vivo, human; conditions: for AUC(0-t) / Cmax / Tmax / Vd/F: human, plasma, oral; for AUC(0-t): read-out: AUC24h, mean (SD); for Cmax: read-out: Cmax, mean (SD); for Tmax: read-out: tmax, median (range); for Vd/F: read-out: Vz/F, mean (SD)
Method: Non-compartmental analysis was performed using WinNonlin Professional software, version 6.3. Parameters were summarized descriptively.

MDM2-p53 interaction = conditions: cited from earlier work
MDM2-amplified tumors = conditions: cited from earlier work
[2] = 15 mg, Day 1, dose escalation, 15 mg (n = 3)
[3] = 15 mg, Day 7, dose escalation, 15 mg (n = 3)
[4] = 30 mg, Day 1, dose escalation, 30 mg (n = 3)
[5] = 30 mg, Day 7, dose escalation, 30 mg (n = 3)
[6] = 60 mg, Day 1, dose escalation, 60 mg (n = 2–4)
[7] = 60 mg, Day 7, dose escalation, 60 mg (n = 2–4)
[8] = 120 mg, Day 1, dose escalation, 120 mg (n = 4–7)
[9] = 120 mg, Day 7, dose escalation, 120 mg (n = 4–7)
[10] = 240 mg, Day 1, 240-mg dose expansion, DDLPS (n = 6–10)
[11] = 240 mg, Day 1, 240-mg dose expansion, ER + PR+ Breast (n = 6–8)
[12] = 240 mg, Day 1, 240-mg dose expansion, ER + PR– Breast (n = 4)
[13] = 240 mg, Day 1, 240-mg dose expansion, GBM (n = 6–9)
[14] = 240 mg, Day 1, 240-mg dose expansion, Multiple Myeloma (n = 7–10)
[15] = 240 mg, Day 1, 240-mg dose expansion, Other Solid (n = 9–16)
[16] = 240 mg, Day 1, 240-mg dose expansion, Total (n = 47–67)
[17] = 240 mg, Day 1, 240-mg dose expansion, WDLPS (n = 9–10)
[18] = 240 mg, Day 1, Parts 1 and 2, 240 mg (n = 54–75)
[19] = 240 mg, Day 1, dose escalation, 240 mg (n = 7–8)
[20] = 240 mg, Day 7, 240-mg dose expansion, DDLPS (n = 6–10)
[21] = 240 mg, Day 7, 240-mg dose expansion, ER + PR+ Breast (n = 6–8)
[22] = 240 mg, Day 7, 240-mg dose expansion, ER + PR– Breast (n = 4)
[23] = 240 mg, Day 7, 240-mg dose expansion, GBM (n = 6–9)
[24] = 240 mg, Day 7, 240-mg dose expansion, Multiple Myeloma (n = 7–10)
[25] = 240 mg, Day 7, 240-mg dose expansion, Other Solid (n = 9–16)
[26] = 240 mg, Day 7, 240-mg dose expansion, Total (n = 47–67)
[27] = 240 mg, Day 7, 240-mg dose expansion, WDLPS (n = 9–10)
[28] = 240 mg, Day 7, Parts 1 and 2, 240 mg (n = 54–75)
[29] = 240 mg, Day 7, dose escalation, 240 mg (n = 7–8)
[30] = 300 mg, Day 1, dose escalation, 300 mg (n = 3–4)
[31] = 300 mg, Day 7, dose escalation, 300 mg (n = 3–4)
[32] = 360 mg, Day 1, dose escalation, 360 mg (n = 3–4)
[33] = 360 mg, Day 7, dose escalation, 360 mg (n = 3–4)
[34] = 480 mg, Day 1, dose escalation, 480 mg (n = 5–6)
[35] = 480 mg, Day 7, dose escalation, 480 mg (n = 5–6)

SMILES: CC(C)[C@@H](CS(=O)(=O)C(C)C)N1C(=O)[C@@](C)(CC(=O)O)C[C@H](c2cccc(Cl)c2)[C@H]1c1ccc(Cl)cc1 [AMG 232]
- Dose proportionality of plasma concentrations ([1]; 15–480 mg QD for 7 days Q3W): increased generally dose proportionally
- AUC(0-t) [1, 2]: 884 ng·h/mL
- Cmax [1, 2]: 169 ng/mL
- Tmax [1, 2]: 3.1 h
- AUC(0-t) [1, 3]: 949 ng·h/mL
- Cmax [1, 3]: 130 ng/mL
- Vd/F [1, 3]: 497 L
- Tmax [1, 3]: 3.1 h
- AUC(0-t) [1, 4]: 1960 ng·h/mL
- Cmax [1, 4]: 255 ng/mL
- Tmax [1, 4]: 3 h
- AUC(0-t) [1, 5]: 2830 ng·h/mL
- Cmax [1, 5]: 259 ng/mL
- Tmax [1, 5]: 3 h
- AUC(0-t) [1, 6]: 2950 ng·h/mL
- Cmax [1, 6]: 527 ng/mL
- Tmax [1, 6]: 3 h
- AUC(0-t) [1, 7]: 4000 ng·h/mL
- Cmax [1, 7]: 457 ng/mL
- Vd/F [1, 7]: 360 L
- Tmax [1, 7]: 4 h
- AUC(0-t) [1, 8]: 5160 ng·h/mL
- Cmax [1, 8]: 599 ng/mL
- Tmax [1, 8]: 3 h
- AUC(0-t) [1, 9]: 8940 ng·h/mL
- Cmax [1, 9]: 868 ng/mL
- Vd/F [1, 9]: 664 L
- Tmax [1, 9]: 3 h
- AUC(0-t) [1, 10]: 8010 ng·h/mL
- Cmax [1, 10]: 986 ng/mL
- Tmax [1, 10]: 2 h
- AUC(0-t) [1, 11]: 9660 ng·h/mL
- Cmax [1, 11]: 1920 ng/mL
- Tmax [1, 11]: 2.8 h
- AUC(0-t) [1, 12]: 9430 ng·h/mL
- Cmax [1, 12]: 1360 ng/mL
- Tmax [1, 12]: 2.1 h
- AUC(0-t) [1, 13]: 5360 ng·h/mL
- Cmax [1, 13]: 978 ng/mL
- Tmax [1, 13]: 3 h
- Cmax [1, 14]: 1320 ng/mL
- Tmax [1, 14]: 2 h
- AUC(0-t) [1, 15]: 10800 ng·h/mL
- Cmax [1, 15]: 1670 ng/mL
- Tmax [1, 15]: 3 h
- AUC(0-t) [1, 16]: 8830 ng·h/mL
- Cmax [1, 16]: 1390 ng/mL
- Tmax [1, 16]: 3 h
- AUC(0-t) [1, 17]: 9260 ng·h/mL
- Cmax [1, 17]: 1350 ng/mL
- Tmax [1, 17]: 3.1 h
- AUC(0-t) [1, 18]: 8480 ng·h/mL
- Cmax [1, 18]: 1350 ng/mL
- Tmax [1, 18]: 3 h
- AUC(0-t) [1, 19]: 5690 ng·h/mL
- Cmax [1, 19]: 1030 ng/mL
- Tmax [1, 19]: 2 h
- AUC(0-t) [1, 20]: 10800 ng·h/mL
- Cmax [1, 20]: 1050 ng/mL
- Vd/F [1, 20]: 537 L
- Tmax [1, 20]: 3 h
- Cmax [1, 21]: 1350 ng/mL
- Vd/F [1, 21]: 689 L
- Tmax [1, 21]: 2.8 h
- AUC(0-t) [1, 22]: 9960 ng·h/mL
- Cmax [1, 22]: 1620 ng/mL
- Vd/F [1, 22]: 814 L
- Tmax [1, 22]: 1 h
- AUC(0-t) [1, 23]: 9210 ng·h/mL
- Cmax [1, 23]: 988 ng/mL
- Vd/F [1, 23]: 1010 L
- Tmax [1, 23]: 2.8 h
- AUC(0-t) [1, 24]: 8450 ng·h/mL
- Cmax [1, 24]: 1190 ng/mL
- Vd/F [1, 24]: 859 L
- Tmax [1, 24]: 1.1 h
- AUC(0-t) [1, 25]: 17200 ng·h/mL
- Cmax [1, 25]: 2200 ng/mL
- Vd/F [1, 25]: 353 L
- Tmax [1, 25]: 2.9 h
- AUC(0-t) [1, 26]: 12300 ng·h/mL
- Cmax [1, 26]: 1420 ng/mL
- Vd/F [1, 26]: 627 L
- Tmax [1, 26]: 2.8 h
- AUC(0-t) [1, 27]: 15700 ng·h/mL
- Cmax [1, 27]: 1230 ng/mL
- Vd/F [1, 27]: 389 L
- Tmax [1, 27]: 3 h
- AUC(0-t) [1, 28]: 12100 ng·h/mL
- Cmax [1, 28]: 1440 ng/mL
- Vd/F [1, 28]: 613 L
- Tmax [1, 28]: 2.9 h
- AUC(0-t) [1, 29]: 10600 ng·h/mL
- Cmax [1, 29]: 1560 ng/mL
- Vd/F [1, 29]: 523 L
- Tmax [1, 29]: 3 h
- AUC(0-t) [1, 30]: 14700 ng·h/mL
- Cmax [1, 30]: 1740 ng/mL
- Tmax [1, 30]: 3 h
- AUC(0-t) [1, 31]: 25000 ng·h/mL
- Cmax [1, 31]: 2090 ng/mL
- Vd/F [1, 31]: 762 L
- Tmax [1, 31]: 3.1 h
- AUC(0-t) [1, 32]: 15800 ng·h/mL
- Cmax [1, 32]: 2380 ng/mL
- Tmax [1, 32]: 2 h
- AUC(0-t) [1, 33]: 15500 ng·h/mL
- Cmax [1, 33]: 2050 ng/mL
- Vd/F [1, 33]: 423 L
- Tmax [1, 33]: 2 h
- AUC(0-t) [1, 34]: 18800 ng·h/mL
- Cmax [1, 34]: 2630 ng/mL
- Tmax [1, 34]: 3 h
- AUC(0-t) [1, 35]: 18400 ng·h/mL
- Cmax [1, 35]: 1750 ng/mL
- Vd/F [1, 35]: 585 L
- Tmax [1, 35]: 3.1 h
- Vd/F ([1]; Day 7, Parts 1 and 2, All Doses (n = 76–97)): 615 L
- affinity of blocking the MDM2-p53 interaction (MDM2-p53 interaction): picomolar
- effect of treatment in tumor xenograft models (MDM2-amplified tumors): tumor growth inhibition
- effect on MDM2-amplified tumors in xenograft models (MDM2-amplified tumors; through induction of growth arrest and apoptosis): regression
